System: healthy, nondependent, recreational stimulant users with intranasal insufflation experience
Experiment: Intranasal study, treatment-emergent adverse events (Table 54)
Protocol: The study consisted of a Screening Period, an in-clinic Drug Discrimination Phase, a Treatment Phase, and a Follow-Up Visit.
All subjects were required to fast for at least 8 hours prior to each dose of study drug until approximately 4 hours after each dose. Abuse potential measures and pharmacokinetic samples were collected at different times after the administration of study drug. Subjects who successfully completed the Drug Discrimination Phase and who qualified for the Treatment Phase remained as inpatients to enter the Treatment Phase.

[1] = intranasal, d-MPH HCl 40 mg, SDX Cl 80 mg, N = 46 each

Compound: COC(=O)[C@H](c1ccccc1)[C@H]1CCCCN1C(=O)OC[n+]1cccc(C(=O)N[C@@H](CO)C(=O)O)c1.[Cl-] [serdexmethylphenidate chloride]
- respiratory, thoracic, and eye disorders (nasal discomfort, nasal congestion, rhinorrhoea, epistaxis, increased lacrimation) (intranasal SDX Cl compared to intranasal d-MPH HCl): occurred more often
- Abdominal distension, number of occurrences [1]: 1 E
- Abdominal distension, subjects with event [1]: 1 (2.2%) n (%)
- Abdominal pain, number of occurrences [1]: 2 E
- Abdominal pain, subjects with event [1]: 2 (4.3%) n (%)
- Agitation, number of occurrences [1]: 1 E
- Agitation, subjects with event [1]: 1 (2.2%) n (%)
- Anxiety, number of occurrences [1]: 1 E
- Anxiety, subjects with event [1]: 1 (2.2%) n (%)
- Any TEAE, number of occurrences [1]: 102 E
- Any TEAE, subjects with event [1]: 36 (78.3%) n (%)
- Arthralgia, number of occurrences [1]: 1 E
- Arthralgia, subjects with event [1]: 1 (2.2%) n (%)
- Asthenia, number of occurrences [1]: 1 E
- Asthenia, subjects with event [1]: 1 (2.2%) n (%)
- Back pain, subjects with event [1]: 0 n (%)
- Blood pressure diastolic increased, subjects with event [1]: 0 n (%)
- Bruxism, subjects with event [1]: 0 n (%)
- Cardiac disorders, number of occurrences [1]: 2 E
- Cardiac disorders, subjects with event [1]: 2 (4.3%) n (%)
- Catheter site haematoma, number of occurrences [1]: 1 E
- Catheter site haematoma, subjects with event [1]: 1 (2.2%) n (%)
- Catheter site swelling, number of occurrences [1]: 1 E
- Catheter site swelling, subjects with event [1]: 1 (2.2%) n (%)
- Change in sustained attention, subjects with event [1]: 0 n (%)
- Chest discomfort, subjects with event [1]: 0 n (%)
- Chest pain, number of occurrences [1]: 1 E
- Chest pain, subjects with event [1]: 1 (2.2%) n (%)
- Claustrophobia, number of occurrences [1]: 1 E
- Claustrophobia, subjects with event [1]: 1 (2.2%) n (%)
- Cough, number of occurrences [1]: 3 E
- Cough, subjects with event [1]: 3 (6.5%) n (%)
- Decreased appetite, subjects with event [1]: 0 n (%)
- Defaecation urgency, subjects with event [1]: 0 n (%)
- Diarrhoea, number of occurrences [1]: 1 E
- Diarrhoea, subjects with event [1]: 1 (2.2%) n (%)
- Disturbance in attention, number of occurrences [1]: 1 E
- Disturbance in attention, subjects with event [1]: 1 (2.2%) n (%)
- Dizziness, number of occurrences [1]: 1 E
- Dizziness, subjects with event [1]: 1 (2.2%) n (%)
- Dry mouth, subjects with event [1]: 0 n (%)
- Dry throat, subjects with event [1]: 0 n (%)
- Dysgeusia, number of occurrences [1]: 2 E
- Dysgeusia, subjects with event [1]: 2 (4.3%) n (%)
- Dysmenorrhoea (menstrual cramps), subjects with event [1]: 0 n (%)
- Dyspepsia, subjects with event [1]: 0 n (%)
- Ecchymosis (skin discoloration), number of occurrences [1]: 1 E
- Ecchymosis (skin discoloration), subjects with event [1]: 1 (2.2%) n (%)
- Energy increased, subjects with event [1]: 0 n (%)
- Epistaxis (nosebleed), number of occurrences [1]: 3 E
- Epistaxis (nosebleed), subjects with event [1]: 3 (6.5%) n (%)
- Euphoric mood, number of occurrences [1]: 9 E
- Euphoric mood, subjects with event [1]: 9 (19.6%) n (%)
- Eye disorders, number of occurrences [1]: 9 E
- Eye disorders, subjects with event [1]: 8 (17.4%) n (%)
- Eye irritation, subjects with event [1]: 0 n (%)
- Eye pain, number of occurrences [1]: 1 E
- Eye pain, subjects with event [1]: 1 (2.2%) n (%)
- Fatigue, number of occurrences [1]: 1 E
- Fatigue, subjects with event [1]: 1 (2.2%) n (%)
- Feeling hot, subjects with event [1]: 0 n (%)
- Feeling of relaxation, number of occurrences [1]: 2 E
- Feeling of relaxation, subjects with event [1]: 2 (4.3%) n (%)
- Flushing, subjects with event [1]: 0 n (%)
- Gastrointestinal disorders, number of occurrences [1]: 6 E
- Gastrointestinal disorders, subjects with event [1]: 4 (8.7%) n (%)
- General disorders and administration site conditions, number of occurrences [1]: 7 E
- General disorders and administration site conditions, subjects with event [1]: 6 (13.0%) n (%)
- Haematoma, subjects with event [1]: 0 n (%)
- Head discomfort, number of occurrences [1]: 1 E
- Head discomfort, subjects with event [1]: 1 (2.2%) n (%)
- Headache, number of occurrences [1]: 6 E
- Headache, subjects with event [1]: 5 (10.9%) n (%)
- Hyperhidrosis, number of occurrences [1]: 2 E
- Hyperhidrosis, subjects with event [1]: 2 (4.3%) n (%)
- Hypervigilance, number of occurrences [1]: 6 E
- Hypervigilance, subjects with event [1]: 6 (13.0%) n (%)
- Hypopnoea (shallow breathing), subjects with event [1]: 0 n (%)
- Infections and infestations, subjects with event [1]: 0 n (%)
- Investigations, subjects with event [1]: 0 n (%)
- Irritability, number of occurrences [1]: 1 E
- Irritability, subjects with event [1]: 1 (2.2%) n (%)
- Lacrimation increased, number of occurrences [1]: 8 E
- Lacrimation increased, subjects with event [1]: 8 (17.4%) n (%)
- Metabolism and nutrition disorders, subjects with event [1]: 0 n (%)
- Muscle tightness, subjects with event [1]: 0 n (%)
- Muscle twitching, subjects with event [1]: 0 n (%)
- Musculoskeletal and connective tissue disorders, number of occurrences [1]: 1 E
- Musculoskeletal and connective tissue disorders, subjects with event [1]: 1 (2.2%) n (%)
- Nasal congestion, number of occurrences [1]: 10 E
- Nasal congestion, subjects with event [1]: 10 (21.7%) n (%)
- Nasal discomfort, number of occurrences [1]: 14 E
- Nasal discomfort, subjects with event [1]: 13 (28.3%) n (%)
- Nasal dryness, number of occurrences [1]: 1 E
- Nasal dryness, subjects with event [1]: 1 (2.2%) n (%)
- Nausea, number of occurrences [1]: 2 E
- Nausea, subjects with event [1]: 2 (4.3%) n (%)
- Neck pain, subjects with event [1]: 0 n (%)
- Nervous system disorders, number of occurrences [1]: 12 E
- Nervous system disorders, subjects with event [1]: 11 (23.9%) n (%)
- Obsessive-compulsive disorder, subjects with event [1]: 0 n (%)
- Palpitations, number of occurrences [1]: 2 E
- Palpitations, subjects with event [1]: 2 (4.3%) n (%)
- Peripheral swelling, subjects with event [1]: 0 n (%)
- Pharyngeal hypoaesthesia (numbness of throat), subjects with event [1]: 0 n (%)
- Pharyngitis, subjects with event [1]: 0 n (%)
- Phlebitis superficial, subjects with event [1]: 0 n (%)
- Phonophobia (fear of loud noises), subjects with event [1]: 0 n (%)
- Photophobia, subjects with event [1]: 0 n (%)
- Psychiatric disorders, number of occurrences [1]: 19 E
- Psychiatric disorders, subjects with event [1]: 13 (28.3%) n (%)
- Pyrexia, subjects with event [1]: 0 n (%)
- Reproductive system and breast disorders, subjects with event [1]: 0 n (%)
- Respiratory, thoracic and mediastinal disorders, number of occurrences [1]: 42 E
- Respiratory, thoracic and mediastinal disorders, subjects with event [1]: 25 (54.3%) n (%)
- Restlessness, subjects with event [1]: 0 n (%)
- Rhinorrhoea (runny nose), number of occurrences [1]: 4 E
- Rhinorrhoea (runny nose), subjects with event [1]: 4 (8.7%) n (%)
- Sinus tachycardia, subjects with event [1]: 0 n (%)
- Skin and subcutaneous tissue disorders, number of occurrences [1]: 4 E
- Skin and subcutaneous tissue disorders, subjects with event [1]: 4 (8.7%) n (%)
- Skin erosion, number of occurrences [1]: 1 E
- Skin erosion, subjects with event [1]: 1 (2.2%) n (%)
- Sneezing, number of occurrences [1]: 1 E
- Sneezing, subjects with event [1]: 1 (2.2%) n (%)
- Somnolence, number of occurrences [1]: 1 E
- Somnolence, subjects with event [1]: 1 (2.2%) n (%)
- Tachycardia, subjects with event [1]: 0 n (%)
- Testis discomfort, subjects with event [1]: 0 n (%)
- Throat irritation, number of occurrences [1]: 4 E
- Throat irritation, subjects with event [1]: 3 (6.5%) n (%)
- Upper-airway cough syndrome, number of occurrences [1]: 2 E
- Upper-airway cough syndrome, subjects with event [1]: 2 (4.3%) n (%)
- Vascular disorders, subjects with event [1]: 0 n (%)
- Ventricular extrasystoles, subjects with event [1]: 0 n (%)
- Vessel puncture site bruise, subjects with event [1]: 0 n (%)
- Vessel puncture site pain, subjects with event [1]: 0 n (%)
- Visual impairment, subjects with event [1]: 0 n (%)
- Vomiting, subjects with event [1]: 0 n (%)

— patent US20200237742A1, “Serdexmethylphenidate Conjugates, Compositions And Methods Of Use Thereof” (priority 2018, published 2020)
